# ChEMBL document CHEMBL5608215, “Development of amphipathic derivatives of thymol and carvacrol as potent broad-spectrum antibacterial agents” (Eur J Med Chem, 2024)
# Assays:
# Format in all cases: functional
# Pseudomonas aeruginosa = experiment: Antibacterial activity against Pseudomonas aeruginosa ATCC27853 by CLSI based serial dilution method
# Staphylococcus aureus [1] = experiment: Antibacterial activity against methicillin-resistant Staphylococcus aureus 21-5 by CLSI based serial dilution method
# Enterococcus faecalis = experiment: Antibacterial activity against Enterococcus faecalis ATCC29212 by CLSI based serial dilution method
# Escherichia coli = experiment: Antibacterial activity against Escherichia coli ATCC25922 by CLSI based serial dilution method
# Staphylococcus aureus [2] = experiment: Antibacterial activity against Staphylococcus aureus ATCC29213 by CLSI based serial dilution method
# Enterococcus = experiment: Antibacterial activity against vancomycin-resistant Enterococcus ATCC51299 by CLSI based serial dilution method
Compound,MIC (Pseudomonas aeruginosa),MIC (Staphylococcus aureus [1]),MIC (Enterococcus faecalis),MIC (Escherichia coli),MIC (Staphylococcus aureus [2]),MIC (Enterococcus)
CCCCN(CCCC)C(=O)C[N+](C)(C)CCCOc1cc(C(C)C)ccc1C.[Br-],> 128 µg/mL,8 µg/mL,8 µg/mL,64 µg/mL,4 µg/mL,16 µg/mL
CCCCNC(=O)C[N+](C)(C)CCCCCOc1cc(C)ccc1C(C)C.[Br-],> 128 µg/mL,16 µg/mL,16 µg/mL,64 µg/mL,8 µg/mL,64 µg/mL
Cc1ccc(C(C)C)cc1O [CARVACROL],> 128 µg/mL,> 128 µg/mL,128 µg/mL,128 µg/mL,> 128 µg/mL,> 128 µg/mL
Cc1ccc(C(C)C)cc1OCCC[N+](C)(C)CC(=O)N1CCOCC1.[Br-],> 128 µg/mL,> 128 µg/mL,128 µg/mL,> 128 µg/mL,128 µg/mL,> 128 µg/mL
Cc1ccc(C(C)C)c(OCCCCC[N+](C)(C)CC(=O)N(CC(C)C)CC(C)C)c1.[Br-],128 µg/mL,2 µg/mL,4 µg/mL,32 µg/mL,2 µg/mL,8 µg/mL
Cc1ccc(C(C)C)cc1OCCCCC[N+](C)(C)CC(=O)N1CCOCC1.[Br-],> 128 µg/mL,128 µg/mL,128 µg/mL,> 128 µg/mL,128 µg/mL,> 128 µg/mL
CCCCCCN(CCCCCC)C(=O)C[N+](C)(C)CCCOc1cc(C)ccc1C(C)C.[Br-],> 128 µg/mL,> 128 µg/mL,16 µg/mL,128 µg/mL,16 µg/mL,32 µg/mL
CCCCN(CCCC)C(=O)C[N+](C)(C)CCCCOc1cc(C)ccc1C(C)C.[Br-],> 128 µg/mL,2 µg/mL,8 µg/mL,128 µg/mL,2 µg/mL,8 µg/mL
Cc1ccc(C(C)C)cc1OCCCCC[N+](C)(C)CC(=O)N(C(C)C)C(C)C.[Br-],> 128 µg/mL,8 µg/mL,8 µg/mL,64 µg/mL,4 µg/mL,8 µg/mL
CCCN(CCC)C(=O)C[N+](C)(C)CCCCOc1cc(C(C)C)ccc1C.[Br-],> 128 µg/mL,32 µg/mL,32 µg/mL,128 µg/mL,16 µg/mL,64 µg/mL
Cc1ccc(C(C)C)cc1OCCC[N+](C)(C)CC(=O)N(CC(C)C)CC(C)C.[Br-],> 128 µg/mL,16 µg/mL,16 µg/mL,64 µg/mL,4 µg/mL,16 µg/mL
CCCCCCN(CCCCCC)C(=O)C[N+](C)(C)CCCOc1cc(C(C)C)ccc1C.[Br-],16 µg/mL,8 µg/mL,0.25 µg/mL,4 µg/mL,0.25 µg/mL,1 µg/mL
Cc1ccc(C(C)C)c(OCCC[N+](C)(C)CC(=O)N2CCSCC2)c1.[Br-],> 128 µg/mL,64 µg/mL,128 µg/mL,> 128 µg/mL,64 µg/mL,> 128 µg/mL
Cc1ccc(C(C)C)cc1OCCCC[N+](C)(C)CC(=O)N1CCSCC1.[Br-],> 128 µg/mL,64 µg/mL,64 µg/mL,128 µg/mL,32 µg/mL,128 µg/mL
Cc1ccc(C(C)C)c(OCCCC[N+](C)(C)CC(=O)N2CCOCC2)c1.[Br-],> 128 µg/mL,> 128 µg/mL,> 128 µg/mL,> 128 µg/mL,> 128 µg/mL,> 128 µg/mL
CCCCCCCNC(=O)C[N+](C)(C)CCCCOc1cc(C(C)C)ccc1C.[Br-],16 µg/mL,16 µg/mL,2 µg/mL,4 µg/mL,1 µg/mL,4 µg/mL
Cc1ccc(C(C)C)cc1OCCCC[N+](C)(C)CC(=O)N1CCOCC1.[Br-],> 128 µg/mL,> 128 µg/mL,> 128 µg/mL,> 128 µg/mL,> 128 µg/mL,> 128 µg/mL
CCCCCCCNC(=O)C[N+](C)(C)CCCCCOc1cc(C(C)C)ccc1C.[Br-],8 µg/mL,4 µg/mL,1 µg/mL,4 µg/mL,1 µg/mL,2 µg/mL
CCCCN(CCCC)C(=O)C[N+](C)(C)CCCCOc1cc(C(C)C)ccc1C.[Br-],128 µg/mL,4 µg/mL,4 µg/mL,32 µg/mL,2 µg/mL,16 µg/mL
Cc1ccc(C(C)C)c(OCCCCC[N+](C)(C)CC(=O)N2CCSCC2)c1.[Br-],> 128 µg/mL,32 µg/mL,32 µg/mL,128 µg/mL,32 µg/mL,128 µg/mL
Cc1ccc(C(C)C)cc1OCCCCC[N+](C)(C)CC(=O)N1CCSCC1.[Br-],> 128 µg/mL,128 µg/mL,32 µg/mL,128 µg/mL,32 µg/mL,64 µg/mL
CCCCCCCNC(=O)C[N+](C)(C)CCCCCOc1cc(C)ccc1C(C)C.[Br-],32 µg/mL,16 µg/mL,4 µg/mL,16 µg/mL,4 µg/mL,8 µg/mL
